Experimental data as given in patent publication US20230391785A1, “NITROGEN-CONTAINING HETEROCYCLIC COMPOUND, METHOD FOR PREPARING SAME AND USE OF SAME” (280 Bio, Inc., priority 2021, published 2023).
Where two headings read alike, the source gives them in different places.

Columns and labels:
Format in all cases: cell-based
[1] = tested on: A375 wild type malignant melanoma cell line; assay: Proliferation inhibition measured by CTG (CellTiter Glo), A375; details: Homo sapiens, A-375, CTG, 120 hours incubation
From the text: (§1) NCI-H358 is a human non-small cell lung cancer cell line with KRAS G12C mutation; PANC-1 and AsPC-1 are pancreatic cancer cell lines with KRAS G12D mutation; AGS is a gastric cancer cell line with KRAS G12D mutation; A427 is a lung cancer cell line with KRAS G12D mutation; THP-1 is a leukemia cell line with NRAS G12D mutation; Hs 578T is a breast cancer cell line with HRAS G12D mutation; SW480 is a colon cancer cell lines with KRAS G12V mutation; A375 is a wild type malignant melanoma cell line. The proliferation inhibitory effect of the compounds on various mutations was evaluated by determining the proliferation inhibitory activity of the compounds on these cell lines.
(§2) The assay was conducted on either 384-well plates or 96-well plates. The procedures are as follows:
(§3) The cell suspensions were added to 384- or 96-well plates (384-well plate: 40 μL; 96-well plate: […]) except for peripheral wells. The plates were incubated in a carbon dioxide incubator overnight. Prepared compounds (10 concentration gradients by serial 3-fold dilution) were added to the wells. The cell plates were incubated in a carbon dioxide incubator for 120 hours. CellTiter Glo reagent (384 well plate: 25 μL; 96 well plate: 100 μL) was added to the 384- or 96-well plates. The plates were shaken for 10 minutes away from light, and incubated for 10 minutes. The plates were read by EnVision system. Inhibition curves were plotted using XLFit and IC50 values were calculated. “IC50>10 μM” is denoted by “*”, “10 μM≥IC50>1 μM” is denoted by “**”, “1 μM≥IC50>100 nM” is denoted by “***”, and “IC50≤100 nM” is denoted by “****”.

[2] = tested on: NCI-H358 cells (KRAS G12C mutation); assay: Proliferation inhibition measured by CTG (CellTiter Glo), NCI-H358; details: Homo sapiens, 120 hours incubation
From the text: as §1, §2, §3

[3] = tested on: AGS gastric cancer cell line (KRAS G12D mutation); assay: Proliferation inhibition measured by CTG (CellTiter Glo), AGS; details: CTG, 120 hours incubation
From the text: as §1, §2, §3

[4] = tested on: SW480 colon cancer cell line (KRAS G12V mutation); assay: Proliferation inhibition measured by CTG (CellTiter Glo), SW480; details: Homo sapiens
From the text: as §1, §2, §3

[5] = Table 3, class symbol, read-out: IC50 (A375)
[6] = Table 3, CTG, class symbol, read-out: IC50 (H358)
[7] = Table 3, class symbol, read-out: IC50 (AGS)
[8] = Table 3, 120 hours incubation, class symbol, read-out: IC50 (SW480)
[9] = Table 2, read-out: IC50 A375 (wide type)
[10] = Table 2, CTG, read-out: IC50 H358 (G12C)
[11] = Table 2, read-out: IC50 AGS (G12D)
[12] = Table 1, class symbol, read-out: IC50 (A375)
[13] = Table 1, CTG, class symbol, read-out: IC50 (H358)
[14] = Table 1, class symbol, read-out: IC50 (AGS)

| Structure (SMILES) | IC50 [1, 5] | IC50 [2, 6] | IC50 [3, 7] | IC50 [4, 8] | also measured |
| --- | --- | --- | --- | --- | --- |
| CC(C)[C@@H](N)C(=O)Oc1cc(N2CCc3c(nc(OC[C@@H]4CCCN4C)nc3N3Cc4c(F)ncn4C[C@H]3C)C2)c2c(Cl)cccc2c1 [Compound 101] | ≤ 100 nM | ≤ 100 nM | ≤ 100 nM | ≤ 100 nM | – |
| C[C@@H]1Cn2cnc(Cl)c2CN1c1nc(OCC2CCCN2C)nc2c1CCN(c1cccc3cccc(Cl)c13)C2 (some centres unmarked) [Compound 86] | ≤ 100 nM | ≤ 100 nM | ≤ 100 nM | ≤ 100 nM | – |
| C[C@@H]1Cn2cncc2CN1c1nc(OC[C@@H]2CCCN2C)nc2c1CCN(c1cccc3cccc(Cl)c13)C2 [Compound 44] | ≤ 100 nM | ≤ 100 nM | ≤ 100 nM | ≤ 100 nM | IC50 [1, 9]: 36 nM; IC50 [2, 10]: 33 nM; IC50 [3, 11]: 24 nM; IC50 ([4]; Table 2, 120 hours incubation, read-out: IC50 SW480 (G12V)): 25 nM |
| C=Cc1ncc2n1CCN(c1nc(OC[C@@H]3CCCN3C)nc3c1CCN(c1cccc4ccccc14)C3)C2 [Comparative compound 3′, reference compound] | – | – | – | – | IC50 [1, 9]: 1500 nM; IC50 [2, 10]: 1040 nM; IC50 [3, 11]: 1180 nM |
| [2H]C([2H])([2H])N1CCC[C@H]1COc1nc2c(c(N3Cc4cncn4C[C@H]3C)n1)CCN(c1cccc3cccc(Cl)c13)C2 [Compound 77] | ≤ 100 nM | ≤ 100 nM | ≤ 100 nM | ≤ 100 nM | – |
| C[C@@H]1Cn2cnc(F)c2CN1c1nc(OC[C@@H]2CCCN2C)nc2c1CCN(c1cc(OC(=O)N(C)C)cc3cccc(Cl)c13)C2 [Compound 97] | 100 to 1000 nM | ≤ 100 nM | ≤ 100 nM | ≤ 100 nM | – |
| C[C@@H]1Cn2cnc(F)c2CN1c1nc(OC[C@@H]2CCCN2C)nc2c1CCN(c1cc(NC(=O)OC(C)(C)C)cc3cccc(Cl)c13)C2 [Compound 109] | 1000 to 10000 nM | 1000 to 10000 nM | 100 to 1000 nM | 100 to 1000 nM | – |
| C[C@@H]1Cn2cncc2CN1c1nc(O[C@H]2CCN(C)C2)nc2c1CCN(c1cccc3cccc(Cl)c13)C2 [Compound 71] | 1000 to 10000 nM | 100 to 1000 nM | 100 to 1000 nM | 100 to 1000 nM | – |
| CN1CCC[C@H]1COc1nc2c(c(N3CCn4c(cnc4-c4ccccc4)C3)n1)CCN(c1cccc3cccc(Cl)c13)C2 [Compound 50] | 1000 to 10000 nM | 1000 to 10000 nM | 1000 to 10000 nM | 1000 to 10000 nM | – |
| CN1CCC[C@H]1COc1nc2c(c(N3CCn4cnc(C(N)=O)c4C3)n1)CCN(c1cccc3cccc(Cl)c13)C2 [Compound 52] | 1000 to 10000 nM | 100 to 1000 nM | 100 to 1000 nM | 1000 to 10000 nM | – |
| C[C@@H]1Cn2cnc(F)c2CN1c1nc(OC[C@@H]2CCCCN2C)nc2c1CCN(c1cc(F)cc3cccc(Cl)c13)C2 [Compound 115] | ≤ 100 nM | ≤ 100 nM | ≤ 100 nM | ≤ 100 nM | – |
| C[C@@H]1Cn2cncc2CN1c1nc(OC[C@@H]2CCCN2C)nc2c1CCN(c1cccc3c1CCCC3)C2 [Compound 84] | 1000 to 10000 nM | 1000 to 10000 nM | 100 to 1000 nM | 100 to 1000 nM | – |
| CC1Cc2[nH]ncc2CN1c1nc(OC[C@@H]2CCCN2C)nc2c1CCN(c1cccc3cccc(Cl)c13)C2 (some centres unmarked) [Compound 118] | 100 to 1000 nM | 100 to 1000 nM | ≤ 100 nM | ≤ 100 nM | – |
| COc1cc(N2CCc3c(nc(OC[C@@H]4CCCN4C)nc3N3Cc4cncn4C[C@H]3C)C2)c2c(Cl)cccc2c1 [Compound 85] | 1000 to 10000 nM | 100 to 1000 nM | 100 to 1000 nM | 100 to 1000 nM | – |
| C[C@@H]1Cn2cnc(F)c2CN1c1nc(OC[C@@H]2CCCN2C)nc2c1CCN(c1cc(OC(=O)C(C)(C)C)cc3cccc(Cl)c13)C2 [Compound 96] | – | – | ≤ 100 nM | ≤ 100 nM | – |
| CCN1CCC[C@H]1COc1nc2c(c(N3Cc4cncn4C[C@H]3C)n1)CCN(c1cccc3cccc(Cl)c13)C2 [Compound 63] | 100 to 1000 nM | ≤ 100 nM | ≤ 100 nM | ≤ 100 nM | – |

| Structure (SMILES) | IC50 [1, 5] | IC50 [2, 6] | IC50 [3, 7] | IC50 [4, 8] | also measured |
| --- | --- | --- | --- | --- | --- |
| CN1CCC[C@H]1COc1nc2c(c(N3CCn4cnc(C5CC5)c4C3)n1)CCN(c1cccc3cccc(Cl)c13)C2 [Compound 40] | – | – | – | – | IC50 [1, 12]: 100 to 1000 nM; IC50 [2, 13]: 100 to 1000 nM; IC50 [3, 14]: 100 to 1000 nM |
| CNC(=O)Oc1cc(N2CCc3c(nc(OC[C@@H]4CCCN4C)nc3N3Cc4c(F)ncn4C[C@H]3C)C2)c2c(Cl)cccc2c1 [Compound 98] | ≤ 100 nM | ≤ 100 nM | ≤ 100 nM | ≤ 100 nM | – |
| C[C@@H]1Cn2cnc(F)c2CN1c1nc(OC[C@@H]2CCCN2C)nc2cc(-c3cc(O)cc4cccc(Cl)c34)ccc12 [Compound 91] | ≤ 100 nM | ≤ 100 nM | ≤ 100 nM | ≤ 100 nM | – |
| C[C@@H]1Cn2cnc(F)c2CN1c1nc(OC[C@@H]2CCCN2C)nc2cc(-c3cc(OC(=O)C(C)(C)C)cc4cccc(Cl)c34)ccc12 [Compound 92] | ≤ 100 nM | ≤ 100 nM | ≤ 100 nM | ≤ 100 nM | – |
| C[C@@H]1Cn2cnc(F)c2CN1c1nc(OC[C@@H]2CCCN2C)nc2c1CCN(c1cc(F)cc3cccc(Cl)c13)C2 [Compound 117] | ≤ 100 nM | ≤ 100 nM | ≤ 100 nM | ≤ 100 nM | – |
| CC[C@@H]1Cn2cncc2CN1c1nc(OC[C@@H]2CCCN2C)nc2c1CCN(c1cccc3cccc(Cl)c13)C2 [Compound 107] | ≤ 100 nM | ≤ 100 nM | ≤ 100 nM | ≤ 100 nM | – |
| Cc1cccc(N)c1C(=O)Oc1cc(N2CCc3c(nc(OC[C@@H]4CCCN4C)nc3N3Cc4c(F)ncn4C[C@H]3C)C2)c2c(Cl)cccc2c1 [Compound 102] | ≤ 100 nM | ≤ 100 nM | ≤ 100 nM | ≤ 100 nM | – |
| C#Cc1c(F)ccc2cc(O)cc(N3CCc4c(nc(OC[C@@H]5CCCN5C)nc4N4Cc5c(F)ncn5C[C@H]4C)C3)c12 [Compound 108] | 100 to 1000 nM | 100 to 1000 nM | ≤ 100 nM | ≤ 100 nM | – |
| C[C@@H]1Cn2cncc2CN1c1nc(OC[C@@H]2CCCN2C)nc2c1CCN(c1cccc3cccnc13)C2 [Compound 83] | 100 to 1000 nM | ≤ 100 nM | ≤ 100 nM | ≤ 100 nM | – |
| C[C@@H]1Cn2cnc(F)c2CN1c1nc(OC[C@@H]2CCCCN2C)nc2c1CCN(c1cccc3cccc(F)c13)C2 [Compound 113] | ≤ 100 nM | ≤ 100 nM | ≤ 100 nM | ≤ 100 nM | – |
| Cc1ncn2c1CN(c1nc(OC[C@@H]3CCCN3C)nc3c1CCN(c1cccc4cccc(Cl)c14)C3)CC2 [Compound 41] | – | – | – | – | IC50 [1, 12]: 100 to 1000 nM; IC50 [2, 13]: 100 to 1000 nM; IC50 [3, 14]: ≤ 100 nM |
| C[C@@H]1Cn2cncc2CN1c1nc(OC[C@@H]2CCCN2C)nc2c1CCN(c1cccc3ccccc13)C2 [Compound 68] | 100 to 1000 nM | ≤ 100 nM | ≤ 100 nM | ≤ 100 nM | – |
| CN1CCC[C@H]1COc1nc2c(c(N3CCn4cncc4C3)n1)CCN(c1cc(O)cc3ccccc13)C2 [Compound 43] | – | 100 to 1000 nM | 100 to 1000 nM | – | – |
| C=Cc1ncc2n1CCN(c1nc(OC[C@@H]3CCCN3C)nc3c1CCN(c1cccc4cccc(Cl)c14)C3)C2 [Comparative compound 2′, reference compound] | – | – | – | – | IC50 [1, 9]: 1610 nM; IC50 [2, 10]: 1230 nM; IC50 [3, 11]: 1480 nM |
| C[C@@H]1Cn2cncc2CN1c1nc(OC[C@@H]2CCCN2C)nc2c1CCN(c1cc(OC(=O)C(C)(C)C)cc3cccc(Cl)c13)C2 [Compound 79] | ≤ 100 nM | – | ≤ 100 nM | ≤ 100 nM | – |
